The NIST ThermoML archive (doi:10.1021/je800197t)
Numbers after ± are expanded uncertainties.

Assay: xn = mol fraction of the nth substance listed
Settings: 101 kPa, Liquid

CN1CCOCC1 [N-methylmorpholine] + O
Settings | mass density [kg/m3] | viscosity [mPa·s]
293.15 K, x1 = 0.0452 | 1002.38 ± 1 | 1.898 ± 0.17
293.15 K, x1 = 0.0942 | 1005.32 ± 1.1 | 2.577 ± 0.23
293.15 K, x1 = 0.1267 | 1003.31 ± 1.1 | 3.048 ± 0.27
293.15 K, x1 = 0.1763 | 1000.27 ± 1.1 | 3.562 ± 0.32
293.15 K, x1 = 0.2022 | 996.93 ± 1.1 | 3.777 ± 0.33
293.15 K, x1 = 0.2538 | 991.88 ± 1.2 | 4.115 ± 0.36
293.15 K, x1 = 0.2843 | 988.53 ± 1.2 | 4.238 ± 0.37
293.15 K, x1 = 0.3275 | 983.61 ± 1.3 | 4.395 ± 0.38
293.15 K, x1 = 0.3754 | 977.87 ± 1.4 | 4.439 ± 0.39
293.15 K, x1 = 0.4033 | 974.29 ± 1.5 | 4.429 ± 0.39
293.15 K, x1 = 0.4286 | 971.29 ± 1.5 | 4.406 ± 0.39
293.15 K, x1 = 0.4689 | 966.09 ± 1.6 | 4.331 ± 0.38
293.15 K, x1 = 0.4983 | 962.76 ± 1.7 | 4.241 ± 0.37
293.15 K, x1 = 0.5433 | 957.25 ± 1.8 | 4.065 ± 0.36
293.15 K, x1 = 0.5983 | 950.09 ± 1.9 | 3.798 ± 0.34
293.15 K, x1 = 0.6438 | 945.88 ± 2 | 3.544 ± 0.32
293.15 K, x1 = 0.6942 | 941.06 ± 2.1 | 3.187 ± 0.28
293.15 K, x1 = 0.7587 | 934.53 ± 2.2 | 2.792 ± 0.25
293.15 K, x1 = 0.8163 | 929.89 ± 2.4 | 2.323 ± 0.21
293.15 K, x1 = 0.8869 | 924.9 ± 2.5 | 1.791 ± 0.17
293.15 K, x1 = 0.9244 | 922.59 ± 2.6 | 1.503 ± 0.14
293.15 K, x1 = 0.9812 | 919.88 ± 2.6 | 1.166 ± 0.11
303.15 K, x1 = 0.0452 | 990.98 ± 1.1 | 1.594 ± 0.15
303.15 K, x1 = 0.0942 | 993.65 ± 1.1 | 2.036 ± 0.19
303.15 K, x1 = 0.1267 | 991.58 ± 1.1 | 2.451 ± 0.22
303.15 K, x1 = 0.1763 | 988.46 ± 1.2 | 2.922 ± 0.26
303.15 K, x1 = 0.2022 | 985.14 ± 1.2 | 3.065 ± 0.27
303.15 K, x1 = 0.2538 | 980.12 ± 1.3 | 3.386 ± 0.3
303.15 K, x1 = 0.2843 | 976.81 ± 1.4 | 3.497 ± 0.31
303.15 K, x1 = 0.3275 | 971.96 ± 1.5 | 3.619 ± 0.32
303.15 K, x1 = 0.3754 | 966.31 ± 1.6 | 3.669 ± 0.32
303.15 K, x1 = 0.4033 | 962.77 ± 1.6 | 3.636 ± 0.32
303.15 K, x1 = 0.4286 | 959.83 ± 1.7 | 3.635 ± 0.32
303.15 K, x1 = 0.4689 | 954.72 ± 1.8 | 3.562 ± 0.32
303.15 K, x1 = 0.4983 | 951.45 ± 1.8 | 3.521 ± 0.31
303.15 K, x1 = 0.5433 | 946.05 ± 1.9 | 3.363 ± 0.3
303.15 K, x1 = 0.5983 | 939.74 ± 2 | 3.128 ± 0.28
303.15 K, x1 = 0.6438 | 934.89 ± 2.1 | 2.878 ± 0.26
303.15 K, x1 = 0.6942 | 931.06 ± 2.2 | 2.588 ± 0.23
303.15 K, x1 = 0.7587 | 924.36 ± 2.4 | 2.262 ± 0.21
303.15 K, x1 = 0.8163 | 920.39 ± 2.5 | 1.857 ± 0.17
303.15 K, x1 = 0.8869 | 915.52 ± 2.6 | 1.489 ± 0.14
303.15 K, x1 = 0.9244 | 913.29 ± 2.7 | 1.359 ± 0.13
303.15 K, x1 = 0.9812 | 910.58 ± 2.8 | 1.091 ± 0.11
313.15 K, x1 = 0.0452 | 985.04 ± 1.2 | 1.327 ± 0.13
313.15 K, x1 = 0.0942 | 982.32 ± 1.2 | 1.715 ± 0.16
313.15 K, x1 = 0.1267 | 980.45 ± 1.3 | 1.968 ± 0.18
313.15 K, x1 = 0.1763 | 977.58 ± 1.3 | 2.348 ± 0.21
313.15 K, x1 = 0.2022 | 974.42 ± 1.4 | 2.482 ± 0.23
313.15 K, x1 = 0.2538 | 969.64 ± 1.4 | 2.703 ± 0.24
313.15 K, x1 = 0.2843 | 966.47 ± 1.5 | 2.838 ± 0.26
313.15 K, x1 = 0.3275 | 961.8 ± 1.6 | 2.908 ± 0.26
313.15 K, x1 = 0.3754 | 956.33 ± 1.7 | 2.901 ± 0.26
313.15 K, x1 = 0.4033 | 952.91 ± 1.7 | 2.869 ± 0.26
313.15 K, x1 = 0.4286 | 950.06 ± 1.8 | 2.869 ± 0.26
313.15 K, x1 = 0.4689 | 945.1 ± 1.9 | 2.798 ± 0.25
313.15 K, x1 = 0.4983 | 941.92 ± 1.9 | 2.758 ± 0.25
313.15 K, x1 = 0.5433 | 936.67 ± 2 | 2.602 ± 0.23
313.15 K, x1 = 0.5983 | 930.57 ± 2.1 | 2.388 ± 0.22
313.15 K, x1 = 0.6438 | 925.8 ± 2.2 | 2.244 ± 0.2
313.15 K, x1 = 0.6942 | 922.05 ± 2.3 | 2.031 ± 0.19
313.15 K, x1 = 0.7587 | 916.24 ± 2.5 | 1.764 ± 0.16
313.15 K, x1 = 0.8163 | 912.31 ± 2.5 | 1.495 ± 0.14
313.15 K, x1 = 0.8869 | 907.94 ± 2.7 | 1.222 ± 0.12
313.15 K, x1 = 0.9244 | 905.91 ± 2.7 | 1.077 ± 0.11
313.15 K, x1 = 0.9812 | 903.31 ± 2.8 | 0.952 ± 0.095
323.15 K, x1 = 0.0452 | 978.13 ± 1.3 | 1.119 ± 0.11
323.15 K, x1 = 0.0942 | 972.37 ± 1.4 | 1.334 ± 0.13
323.15 K, x1 = 0.1267 | 968.24 ± 1.4 | 1.539 ± 0.14
323.15 K, x1 = 0.1763 | 965.46 ± 1.5 | 1.761 ± 0.16
323.15 K, x1 = 0.2022 | 962.36 ± 1.5 | 1.858 ± 0.17
323.15 K, x1 = 0.2538 | 957.73 ± 1.6 | 2.023 ± 0.19
323.15 K, x1 = 0.2843 | 954.64 ± 1.6 | 2.113 ± 0.19
323.15 K, x1 = 0.3275 | 950.07 ± 1.7 | 2.183 ± 0.2
323.15 K, x1 = 0.3754 | 944.75 ± 1.8 | 2.176 ± 0.2
323.15 K, x1 = 0.4033 | 941.43 ± 1.9 | 2.143 ± 0.2
323.15 K, x1 = 0.4286 | 938.65 ± 1.9 | 2.144 ± 0.2
323.15 K, x1 = 0.4689 | 933.8 ± 2 | 2.073 ± 0.19
323.15 K, x1 = 0.4983 | 930.71 ± 2.1 | 2.033 ± 0.19
323.15 K, x1 = 0.5433 | 925.57 ± 2.2 | 1.948 ± 0.18
323.15 K, x1 = 0.5983 | 919.96 ± 2.3 | 1.783 ± 0.17
323.15 K, x1 = 0.6438 | 916.85 ± 2.3 | 1.677 ± 0.16
323.15 K, x1 = 0.6942 | 913.49 ± 2.4 | 1.536 ± 0.14
323.15 K, x1 = 0.7587 | 906.16 ± 2.6 | 1.362 ± 0.13
323.15 K, x1 = 0.8163 | 902.37 ± 2.7 | 1.158 ± 0.11
323.15 K, x1 = 0.8869 | 898.07 ± 2.8 | 0.954 ± 0.095
323.15 K, x1 = 0.9244 | 896.15 ± 2.9 | 0.939 ± 0.094
323.15 K, x1 = 0.9812 | 894.06 ± 2.9 | 0.841 ± 0.085
333.15 K, x1 = 0.0452 | 968.24 ± 1.4 | 0.708 ± 0.074
333.15 K, x1 = 0.0942 | 961.01 ± 1.5 | 0.998 ± 0.099
333.15 K, x1 = 0.1267 | 955.3 ± 1.6 | 1.111 ± 0.11
333.15 K, x1 = 0.1763 | 951.37 ± 1.6 | 1.251 ± 0.12
333.15 K, x1 = 0.2022 | – | 1.297 ± 0.12
333.15 K, x1 = 0.2538 | 942.51 ± 1.8 | 1.396 ± 0.13
333.15 K, x1 = 0.2843 | 939.75 ± 1.8 | 1.425 ± 0.14
333.15 K, x1 = 0.3275 | 935.6 ± 1.9 | 1.477 ± 0.14
333.15 K, x1 = 0.3754 | 930.7 ± 2 | 1.468 ± 0.14
333.15 K, x1 = 0.4033 | 927.59 ± 2 | 1.434 ± 0.14
333.15 K, x1 = 0.4286 | 925 ± 2.1 | 1.433 ± 0.14
333.15 K, x1 = 0.4689 | 920.44 ± 2.2 | 1.361 ± 0.13
333.15 K, x1 = 0.4983 | 917.56 ± 2.2 | 1.319 ± 0.13
333.15 K, x1 = 0.5433 | 912.67 ± 2.3 | 1.232 ± 0.12
333.15 K, x1 = 0.5983 | 907.35 ± 2.4 | 1.126 ± 0.11
333.15 K, x1 = 0.6438 | 904.17 ± 2.5 | 1.033 ± 0.1
333.15 K, x1 = 0.6942 | 900.9 ± 2.6 | 0.935 ± 0.093
333.15 K, x1 = 0.7587 | 894.82 ± 2.7 | 0.837 ± 0.085
333.15 K, x1 = 0.8163 | 891.64 ± 2.8 | 0.809 ± 0.083
333.15 K, x1 = 0.8869 | 888.89 ± 2.9 | 0.719 ± 0.075
333.15 K, x1 = 0.9244 | 886.87 ± 3 | 0.703 ± 0.073
333.15 K, x1 = 0.9812 | 884.98 ± 3 | 0.709 ± 0.074
343.15 K, x1 = 0.0452 | 962.12 ± 1.5 | 0.499 ± 0.056
343.15 K, x1 = 0.0942 | 954.33 ± 1.6 | 0.564 ± 0.061
343.15 K, x1 = 0.1267 | 948.38 ± 1.7 | 0.653 ± 0.069
343.15 K, x1 = 0.1763 | 944.12 ± 1.7 | 0.691 ± 0.072
343.15 K, x1 = 0.2022 | 939.98 ± 1.8 | 0.704 ± 0.073
343.15 K, x1 = 0.2538 | 934.96 ± 1.9 | 0.729 ± 0.075
343.15 K, x1 = 0.2843 | 932.11 ± 1.9 | 0.757 ± 0.078
343.15 K, x1 = 0.3275 | 927.87 ± 2 | 0.771 ± 0.079
343.15 K, x1 = 0.3754 | 922.89 ± 2.1 | 0.793 ± 0.081
343.15 K, x1 = 0.4033 | 919.76 ± 2.1 | 0.757 ± 0.078
343.15 K, x1 = 0.4286 | 917.15 ± 2.2 | 0.755 ± 0.078
343.15 K, x1 = 0.4689 | 912.58 ± 2.3 | 0.773 ± 0.079
343.15 K, x1 = 0.4983 | 909.69 ± 2.3 | 0.718 ± 0.075
343.15 K, x1 = 0.5433 | 904.8 ± 2.4 | 0.701 ± 0.073
343.15 K, x1 = 0.5983 | 899.49 ± 2.5 | 0.661 ± 0.07
343.15 K, x1 = 0.6438 | 896.3 ± 2.6 | 0.629 ± 0.067
343.15 K, x1 = 0.6942 | 893.02 ± 2.7 | 0.598 ± 0.064
343.15 K, x1 = 0.7587 | 886.99 ± 2.8 | 0.569 ± 0.062
343.15 K, x1 = 0.8163 | 883.81 ± 2.9 | 0.566 ± 0.062
343.15 K, x1 = 0.8869 | 881.05 ± 3 | 0.556 ± 0.061
343.15 K, x1 = 0.9244 | 879.04 ± 3 | 0.551 ± 0.06
343.15 K, x1 = 0.9812 | 877.14 ± 3.1 | 0.535 ± 0.059
